Source: patent US7517857B2, “Immune-modulating peptide” (POSCO, priority 2002, dated 2009)
Where a SMILES comes first, the peptide text is derived from it. Where no end group is shown, it is not given here. [ ]: non-standard residue; d: D form.

Columns and labels:
[1] = molecular target: T1, FPRL1 (Homo sapiens, UniProt P25090); experiment: Displacement of 125I-labeled WKYMVm binding to FPRL1 (FPRL1-expressing RBL-2H3 cells); conditions: FIG. 2B
T1 construct: expressed in transfected cells; host or cells: RBL-2H3 (rat basophilic leukemia) cells, G418-selected
T1 sequence (P25090 1-351): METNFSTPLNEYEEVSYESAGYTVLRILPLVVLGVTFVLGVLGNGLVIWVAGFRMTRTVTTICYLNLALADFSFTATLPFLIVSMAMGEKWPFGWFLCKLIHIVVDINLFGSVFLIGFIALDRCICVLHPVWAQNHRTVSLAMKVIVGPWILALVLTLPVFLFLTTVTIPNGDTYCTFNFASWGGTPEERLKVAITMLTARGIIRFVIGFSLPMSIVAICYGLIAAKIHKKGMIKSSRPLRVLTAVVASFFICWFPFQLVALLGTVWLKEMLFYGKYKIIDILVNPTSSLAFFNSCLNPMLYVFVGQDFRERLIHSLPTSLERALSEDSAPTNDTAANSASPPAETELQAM
Experimental: From the finding that some of the peptides (WKGMVm (SEQ ID NO: 1), WKRMVm (SEQ ID NO: 11), D-Met^6 substituted peptides) could not induce a cytosolic calcium increase, it was checked whether the peptides can bind to FPR or not. Displacement of ^125I-labeled WKYMVm binding to FPR or FPRL1 by the peptides was monitored. FPR-expressing RBL-2H3 cells were incubated with [^125I] WKYMVm in the absence or presence of increasing amounts of unlabeled WKYMVm or the peptides of SEQ ID NOs: 1 to 24.
A ligand binding analysis was performed as modified from the previous report (16). The radioiodinated WKYMVm (^125I-labeled) was purchased from NEN Lifesciences (Boston, Mass.). Briefly, FPR- or FPRL1-expressing RBL-2H3 cells were seeded into 1×10^5 cells per well of a 24-well plate and cultured overnight. After blocking the cells with a blocking buffer (33 mM HEPES, pH 7.5, 0.1% BSA in RPMI) for 2 hr, a single concentration of ^125I-labeled WKYMVm was added to cells with a binding buffer (PBS containing 0.1% BSA) in the absence or presence of 50 μM unlabelled peptides and incubated for 3 hr at 4° C. with continuous shaking. Then the samples were washed 5 times with ice-cold binding buffer, and 200 μl of lysis buffer (20 mM Tris, pH 7.5, 1% Triton X-100) was added to each well. After 20 min of lysis at room temperature, the lysates were collected. Bound ^125I-labeled WKYMVm was measured for radioactivity for a γ-ray counter.

[2] = molecular target: T2, FPR (Homo sapiens, UniProt P21462); experiment: Akt phosphorylation in FPR-expressing RBL-2H3 cells (immunoblot); assay type: cell-based; conditions: 10 μM peptides 2 min (WKYMVm time course 1 μM)
T2 construct: expressed in transfected cells; host or cells: RBL-2H3 (rat basophilic leukemia) cells, G418-selected
T2 sequence (P21462 1-350): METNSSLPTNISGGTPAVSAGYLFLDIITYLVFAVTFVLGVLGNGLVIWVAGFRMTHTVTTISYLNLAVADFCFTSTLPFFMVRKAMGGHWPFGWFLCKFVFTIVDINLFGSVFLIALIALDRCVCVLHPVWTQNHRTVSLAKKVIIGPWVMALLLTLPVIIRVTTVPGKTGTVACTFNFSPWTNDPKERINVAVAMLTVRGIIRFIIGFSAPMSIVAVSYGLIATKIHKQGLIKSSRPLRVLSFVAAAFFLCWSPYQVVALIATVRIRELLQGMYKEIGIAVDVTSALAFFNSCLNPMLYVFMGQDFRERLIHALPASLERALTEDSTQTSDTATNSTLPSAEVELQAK
Experimental: It is well known that activation of chemoattractant receptors induces Akt activation via PI3K (19). Stimulation of cells with the peptides, electrophoresis and immunoblot analysis were performed according to the same method as in Example 5.
FPR- or FPRL1-expressing RBL-2H3 cells were stimulated with 1 μM WKYMVm for various periods of time (FIG. 4A). Two cells were preincubated with a vehicle or 100 ng/ml of PTX (24 hr), 50 μM of LY294002 (15 min), 5 μM of GFX (15 min), 10 μM BAPTA/AM (60min), or 50 μM PD98059 (60 min) prior to treatment with 1 μM of WKYMVm (FIG. 4B). FPR- and FPRL1-expressing RBL2H3 cells were stimulated with 10 μM of WKYMVm and the present peptides for 2 min or 5 min, respectively (FIG. 4C). Each sample (30 μg of protein) was subjected to 10% SDS-PAGE and phosphorylated Akt was determined by immunoblot analysis with an anti-phospho-Akt antibody. A western blot analysis with an anti-Akt antibody was performed to confirm that the same amounts of samples were used for the experiments. The results are shown FIGS. 4A to 4C. Results of FIGS. 4A to 4C are the representative of 3 independent experiments.

[3] = molecular target: T2, FPR; experiment: [Ca2+]i increase in FPR-expressing RBL-2H3 cells (fura-2); assay type: cell-based; conditions: for EC50 (nM), intracellular calcium increase: fura-2 loaded
Experimental: FPR-expressing RBL-2H3 cells were stimulated with 10 μM of each peptide, and [Ca^2+]i was determined. The level of [Ca^2+]i was determined fluorometrically by Grynkiewicz's method using fura-2/AM (15). Briefly, prepared cells were incubated with 3 μM fura-2/AM at 37° C. for 50 min in a fresh serum-free RPMI 1640 medium under continuous stirring. 2×10^6 cells were aliquoted for each assay in Ca^2+-free Locke's solution (154 mM NaCl, 5.6 mM KCl, 1.2 mM MgCl2, 5 mM HEPES, pH 7.3, 10 mM glucose, and 0.2 mM EGTA). Fluorescence changes at the dual excitation wavelengths of 340 nm and 380 nm and the emission wavelength of 500 nm were measured, and the calibrated fluorescence ratio was translated into [Ca^2+]i. The peak level of the increased [Ca^2+]i was monitored.

[4] = tested on: human neutrophils; experiment: Superoxide generation in human neutrophils (cytochrome c reduction); assay type: cell-based; conditions: for O^2− (nmol/10^6 cells), superoxide generation: cytochrome c reduction
Procedure, shortened: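 Neutrophils isolated from donor leukocyte concentrates by dextran sedimentation, hypotonic erythrocyte lysis and lymphocyte separation gradient; 1×10^6 cells in RPMI 1640 preincubated 1 min at 37° C with 50 μM cytochrome c, then peptide added. Superoxide quantified as cytochrome c reduction, absorbance change at 550 nm over 5 min at 1-min intervals; ≥4 independent experiments.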

Molecule	inhibition of [^125I] WKYMVm binding [1]	Akt phosphorylation [2]	[Ca^2+]i increasing activity [3]	EC50 (nM), intracellular calcium increase [3]	O^2− (nmol/10^6 cells), superoxide generation ([4]; peptide 100 nM)	O^2− (nmol/10^6 cells), superoxide generation ([4]; peptide 10 μM)	concentration showing maximal [Ca^2+]i increase activity ([3]; data not shown)	concentration showing the maximal activity on superoxide generation ([4]; data not shown)	O^2− (nmol/10^6 cells), superoxide generation ([4]; peptide 100 nM, listed as wkymvm-NH2)	O^2− (nmol/10^6 cells), superoxide generation ([4]; peptide 10 μM, listed as wkymvm-NH2)
CSCC[C@H](NC(=O)CNC(=O)[C@H](CCCCN)NC(=O)[C@@H](N)Cc1c[nH]c2ccccc12)C(=O)N[C@H](C(=O)N[C@H](CCSC)C(N)=O)C(C)C [WKGMVm-NH2, Trp-Lys-Gly-Met-Val-D-Met-NH2] (H-WKGMV[dM]-NH2; N-terminus assumed)	inhibited binding of [^125I] WKYMVm in a concentration-dependent manner	caused Akt phosphorylation	did not effect a [Ca^2+]i increase until 20 μM treatment	inactive	14.2 ± 3.42 nmol/10^6 cells	37.6 ± 4.57 nmol/10^6 cells				
CSCC[C@H](NC(=O)[C@H](CCCNC(=N)N)NC(=O)[C@H](CCCCN)NC(=O)[C@@H](N)Cc1c[nH]c2ccccc12)C(=O)N[C@H](C(=O)N[C@H](CCSC)C(N)=O)C(C)C [WKRMVm-NH2, Trp-Lys-Arg-Met-Val-D-Met-NH2] (H-WKRMV[dM]-NH2; N-terminus assumed)	inhibited binding of [^125I] WKYMVm in a concentration-dependent manner	caused Akt phosphorylation		inactive	15.9 ± 2.48 nmol/10^6 cells	41.7 ± 8.32 nmol/10^6 cells				
CSCC[C@H](NC(=O)[C@H](Cc1ccc(O)cc1)NC(=O)[C@H](CCCCN)NC(=O)[C@@H](N)Cc1c[nH]c2ccccc12)C(=O)N[C@H](C(=O)N[C@H](CCSC)C(N)=O)C(C)C [WKYMVm-NH2, Trp-Lys-Tyr-Met-Val-D-Met-NH2, reference compound]	inhibited binding of [^125I] WKYMVm in a concentration-dependent manner	caused Akt phosphorylation		inactive	37.3 ± 6.94 nmol/10^6 cells	39.0 ± 3.58 nmol/10^6 cells	around 300 nM	100 nM	0 nmol/10^6 cells	0 nmol/10^6 cells
WKYMVE-NH2 [WKYMVE-NH2, Trp-Lys-Tyr-Met-Val-Glu-NH2]		caused Akt phosphorylation		inactive	5.0 ± 0.43 nmol/10^6 cells	33.6 ± 6.43 nmol/10^6 cells				
WKYMVR-NH2 [WKYMVR-NH2, Trp-Lys-Tyr-Met-Val-Arg-NH2]		caused Akt phosphorylation		inactive	16.3 ± 1.57 nmol/10^6 cells	44.8 ± 3.65 nmol/10^6 cells				
